From ChEMBL document CHEMBL1139125, “N-Benzyl-N-(tetrahydro-2H-pyran-4-yl)pyrrolidin-3-amines as selective dual serotonin/noradrenaline reuptake inhibitors” (Bioorg Med Chem Lett, 2007) come the findings set out here.

Data set [1] in a line: in vitro. The following applies: human, liver microsomes. A general note: Microsomes from liver hold many membrane-bound enzymes, among them those of drug oxidation.
Data set [2] in a line: in vitro. The following applies: human, hepatocytes.

Molecules are shown by their SMILES.

In general, half-life refers to the time needed for the level to fall by half in the phase considered. A lower half-life goes with rapid decline.

In the case of `Cc1cccc(CN(Cc2ccccn2)[C@H]2CCNC2)c1C`, the half-life in data set [1] stood at 0.233 h.

`Fc1cccc(CN(C2CCOCC2)[C@H]2CCNC2)c1C(F)(F)F` displayed a half-life in data set [1] above 2 h.

For `c1ccc(-c2ccccc2CN(C2CCOCC2)[C@H]2CCNC2)cc1`, the half-life is 1.38 h in data set [2] and above 2 h in data set [1].

In the case of `Clc1cccc(CN(CC2CC2)[C@H]2CCNC2)c1Cl`, the half-life in data set [1] is above 2 h.

Take `Cc1cccc(CN(C2CCOCC2)[C@H]2CCNC2)c1Cl`: the results for the half-life in data set [2] and in data set [1] were 1.18 h and above 2 h, respectively.

Turning to `Cc1c(Cl)cccc1CN(C1CCOCC1)[C@H]1CCNC1`, the half-life in data set [2] is 1.73 h; in data set [1], above 2 h.

In data set [1], `COc1cccc(CN(C2CCOCC2)[C@H]2CCNC2)c1C` had a half-life of 1.57 h.

Take `Cc1cccc(CN(C2CCOCC2)[C@H]2CCNC2)c1C`: the half-life in data set [1] was above 2 h.

With `Cc1c(CN(C2CCOCC2)[C@H]2CCNC2)cccc1C(F)(F)F`, the half-life in data set [2] was above 4 h; in data set [1], above 2 h.

In data set [1], `Clc1cccc(CN(Cc2ccccn2)[C@H]2CCNC2)c1Cl` registered a half-life of 1.02 h.

Take `Cc1cccc(CN(Cc2ccccn2)[C@@H]2CCNC2)c1C`: the half-life in data set [1] is 0.4 h.

As for `Cc1cccc(CN(C2CCOCC2)[C@@H]2CCNC2)c1C`, in data set [1], the half-life is above 2 h.

As to `Clc1cccc(CN(CC2CC2)[C@@H]2CCNC2)c1Cl`, the half-life in data set [1] was above 2 h.

Take `Cc1ccccc1CN(C1CCOCC1)[C@H]1CCNC1`: the half-life in data set [1] was above 2 h.

Compound `FC(F)(F)c1ccccc1CN(C1CCOCC1)[C@H]1CCNC1` came in with a half-life in data set [1] above 2 h.
